Reference: patent US20070243273A1, “Reduction of the Deleterious Effects of Tobacco Smoking” (SaviPu Pharmaceuticals, priority 2006, published 2007)

Key:
[1] = system: benzo[a]pyrene-induced transformation of RTE cells; experiment: rat tracheal epithelial (RTE) cell focus inhibition assay; type: cell-based
Description: (§1) The rat tracheal epithelial (RTE) cell focus inhibition assay was used to identify potential chemopreventive activity of tanshinone IIA. Tanshinone IIA was evaluated for its ability to inhibit benzo[a]pyrene-induced transformation of RTE cells. Tracheal epithelial cells were isolated from 8-12 week-old male Fisher 344 rats and plated on collagen coated dishes. Initially, a nontoxic concentration of tanshinone IIA was determined by treating RTE cells with a range of 1.5 nM to 3000 nM of tanshinone IIA. […] About 10% cells survived at a concentration of 1500 nM. Freshly isolated RTE cells were exposed to benzo[a]pyrene alone or in combination with tanshinone IIA. Benzo[a]pyrene was washed out after an exposure of 24 h. The maximal non-toxic concentration and four half log concentrations of tanshinone IIA (300 nM to 3 nM) were used for the chemopreventive assay. After 30 days in culture, transformed foci were scored and inhibition was quantitated. […] A positive control of retinoic acid inhibited the transformation frequency by 50% at 1 nM.

RTE cells = experiment: toxicity of tanshinone IIA to RTE cells; type: cell-based, rat
Description: as §1

SMILES | prevention of benzo[a]pyrene-induced transformation of rat tracheal epithelial cells ([1]; 3 nM) | inhibition of transformation frequency ([1]; each dose level, 300 nM to 3 nM, benzo[a]pyrene exposure 24 h, foci scored after 30 days in culture) | cells survived (RTE cells; 1500 nM) | concentration found nontoxic to RTE cells (RTE cells; tested range 1.5 nM to 3000 nM) | toxicity to the cells (RTE cells; very low concentrations (3 nM)) | inhibition at 0.001 µM ([1]; Rattus norvegicus, 1 nM, positive control, read-out: inhibition of transformation frequency)
Cc1coc2c1C(=O)C(=O)c1c-2ccc2c1CCCC2(C)C [Tanshinone IIA] | totally prevented | complete inhibition | About 10% | ≤ 150 nM | nontoxic | –
CC1=C(/C=C/C(C)=C/C=C/C(C)=C/C(=O)O)C(C)(C)CCC1 [retinoic acid, reference compound] | – | – | – | – | – | 50%
